In BigSolDB 2.1:

COC(=O)Nc1nc2ccccc2[nH]1
solubility (mole fraction)
Settings | 278.15 K | 283.15 K | 288.15 K | 293.15 K | 298.15 K | 303.15 K | 308.15 K | 313.15 K | 318.15 K | 323.15 K
in ethanol | 6.39e-06 | 1.05e-05 | 1.58e-05 | 2.3e-05 | 3.19e-05 | 4.34e-05 | 5.78e-05 | 7.66e-05 | 0.000101 | 0.000134
in methanol | 3.19e-05 | 4e-05 | 5.2e-05 | 6.33e-05 | 7.77e-05 | 9.85e-05 | 0.000118 | 0.000143 | 0.000173 | 0.000201
in n-butanol | 2.12e-06 | 3.75e-06 | 6.22e-06 | 9.84e-06 | 1.5e-05 | 2.28e-05 | 3.34e-05 | 5.07e-05 | 7.61e-05 | 0.000111
in n-pentanol | 1e-06 | 2e-06 | 3.62e-06 | 6.19e-06 | 1.05e-05 | 1.69e-05 | 2.87e-05 | 4.55e-05 | 6.8e-05 | 0.000101
in n-propanol | 3.3e-06 | 5.42e-06 | 8.66e-06 | 1.3e-05 | 1.89e-05 | 2.73e-05 | 3.92e-05 | 5.57e-05 | 8.38e-05 | 0.00012
